Read-outs that look alike come from different tables or passages of the source.
Experiments:
[1] = tested on: MCF-7 (human adenocarcinoma) cells; test: WST-1 antiproliferative assay, MCF-7; assay type: cell-based; conditions: 3–4 days, 0.5–250 µM, neg = negative in concentration used; for IC50: read-out: IC50 ± SD, MCF-7
Text: (§1) Encouraged by promising results in the field of antiproliferative derivatives of acetylenic sulfanylquinoline derivatives, in this study the decision was made to combine the biological potentials of sulfamoylquinoline and alkynyl moieties, with the intention of obtaining compounds with better activity against breast cancer cell lines. The SAR analyses of the acetylenic sufamoylquinoline were based on the cell growth inhibition potencies on the MCF-7 (human adenocarcinoma), MDA-MB-231 and T-47D (human ductal carcinoma) cells using the WST-1 assay. The results from the in vitro cytotoxicity assay are expressed as the concentration of compound (µM) that inhibited the proliferation of 50% of the tumor cells, compared to the control untreated cells (IC50). Cisplatin was used as a positive control to induce cell death.
(§2) The cell lines (MCF-7, MDA-MB-231, and nontumor HFF-1) were cultured and kept in Dubecco’s modified Eagle medium (DMEM) supplemented with 10% fetal bovine serum (FBS) 1.000 IU·mL^−1 penicillin and 10 mg·m^−1·mL^−1 streptomycin in atmosphere with 5% CO2 at 37 °C. The cells were seeded using a series of standard 96-well plates (Corning). Test compounds were prepared at a concentration of 5.0 mM dimethyl sulfoxide (DMSO). Freshly prepared dilutions of the test compounds in a culture medium at a concentration of 0.5–250 µM were added to the microtiter plates and the cells were grown for 3–4 days. Solvent control (DMSO) was included to check its potential inhibitory activity at the concentration used. After incubation, the cell growth rate was evaluated by performing a WST-1 assay. The amount of formazan produced was measured at 450 nm. Expermentally determined absorbance values were transformed into the cell percentage of growth as described previously. Each test point was performed in triplicate for each tested compound cocentration. The results were statistically analyzed using PraphPad Prism 6 software (Graphpad Software, Inc., La Jolla, CA, USA).

[2] = tested on: T47D (human ductal carcinoma) cells; test: WST-1 antiproliferative assay, T47D; assay type: cell-based; conditions: WST-1 assay, 3–4 days, 0.5–250 µM, neg = negative in concentration used; for IC50: read-out: IC50 ± SD, T47D
Text: as §1, §2

[3] = tested on: MDA-MB-231 cells; test: WST-1 antiproliferative assay, MDA-MB-231; assay type: cell-based, human; conditions: 3–4 days, 0.5–250 µM, neg = negative in concentration used, read-out: IC50 ± SD, MDA-MB-231
Text: as §1, §2

[4] = tested on: HFF-1 normal fibroblasts; test: WST-1 cytotoxicity assay, normal fibroblasts HFF-1; assay type: cell-based, human; conditions: 3–4 days, 0.5–250 µM, neg = negative in concentration used; for IC50: read-out: IC50 ± SD, HFF-1
Text: as §1, §2

[5] = Homo sapiens, MCF7, WST-1 assay
[6] = Homo sapiens, MDA-MB-231, WST-1 assay
[7] = Homo sapiens, HFF-1, WST-1 assay

| IC50 [1, 5] | IC50 ± SD, T47D [2] | IC50 [3, 6] | melting point | IC50 ([2]; Homo sapiens, T47D) | IC50 ± SD, MCF-7 ([1]; WST-1 assay) | IC50 ([2]; listed as 4-(3-propynylthio)-7-[N-methyl-N-(3-propynyl)sulfamoyl]quinoline) | SMILES | IC50 ± SD, HFF-1 ([4]; WST-1 assay) | IC50 [4, 7] | IC50 ([3]; WST-1 assay) | IC50 [2] | IC50 ([1]; WST-1 assay) | IC50 ([4]; WST-1 assay) |
| --- | --- | --- | --- | --- | --- | --- | --- | --- | --- | --- | --- | --- | --- |
| 288 ± 3.45 µM | neg | 11.8 ± 0.87 µM | 100 to 101 °C |  |  |  | C#CCSc1nc2ccccc2cc1S(=O)(=O)N(C)CC#C [5a, 2-(3-Propynylthio)-3-[N-methyl-N-(3-propynyl)sulfamoyl]quinoline] | neg |  |  |  |  |  |
| 18.4 ± 0.98 µM |  |  | 164 to 165 °C | 182 ± 3.23 µM |  |  | C#CCSc1ccc2cc(S(=O)(=O)N(C)CC#C)ccc2n1 [5b, 2-(3-Propynylthio)-6-[N-methyl-N-(3-propynyl)sulfamoyl]quinoline] | neg |  | 0.27 ± 0.03 µM |  |  |  |
|  |  | 116 ± 2.13 µM | 101 to 102 °C | 205 ± 6.02 µM | neg |  | C#CCSc1c(S(=O)(=O)N(C)CC#C)cnc2ccccc12 [5c, 4-(3-Propynylthio)-3-[N-methyl-N-(3-propynyl)sulfamoyl]quinoline] | neg |  |  |  |  |  |
| 236.8 ± 2.34 µM | neg | 202 ± 5.46 µM | 139 to 140 °C |  |  |  | C#CCSc1ccnc2ccc(S(=O)(=O)N(C)CC#C)cc12 [5d, 4-(3-Propynylthio)-6-[N-methyl-N-(3-propynyl)sulfamoyl]quinoline] | neg |  |  |  |  |  |
| 0.27 ± 0.03 µM |  | 7.12 ± 0.78 µM | 113 to 114 °C |  |  | 0.07 µM | C#CCSc1ccnc2cc(S(=O)(=O)N(C)CC#C)ccc12 [5e, 4-(3-Propynylthio)-7-[N-methyl-N-(3-propynyl)sulfamoyl]quinoline] |  | 276.1 ± 2.6 µM |  | 0.21 ± 0.01 µM |  |  |
| 13.09 ± 0.11 µM |  | 21.2 ± 0.96 µM | 119 to 120 °C | 0.27 ± 0.03 µM |  |  | C#CCSc1ccnc2c(S(=O)(=O)N(C)CC#C)cccc12 [5f, 4-(3-Propynylthio)-8-[N-methyl-N-(3-propynyl)sulfamoyl]quinoline] |  | 366.1 ± 1.46 µM |  |  |  |  |

The remaining lines, values behind:

| SMILES | IC50 [1, 5] | IC50 ± SD, T47D [2] | IC50 [3, 6] | melting point | IC50 ([2]; Homo sapiens, T47D) | IC50 ± SD, MCF-7 ([1]; WST-1 assay) | IC50 ([2]; listed as 4-(3-propynylthio)-7-[N-methyl-N-(3-propynyl)sulfamoyl]quinoline) | IC50 ± SD, HFF-1 ([4]; WST-1 assay) | IC50 [4, 7] | IC50 ([3]; WST-1 assay) | IC50 [2] | IC50 ([1]; WST-1 assay) | IC50 ([4]; WST-1 assay) |
| --- | --- | --- | --- | --- | --- | --- | --- | --- | --- | --- | --- | --- | --- |
| C#CCN(C)S(=O)(=O)c1cc2ccccc2nc1Cl [2a, 2-Chloro-3-[N-methyl-N-(3-propynyl)sulfamoyl]quinoline] | 351 ± 6.32 µM | neg ^1 | 140 ± 1.98 µM | 110 to 111 °C |  |  |  | neg |  |  |  |  |  |
| C#CCN(C)S(=O)(=O)c1ccc2nc(Cl)ccc2c1 [2b, 2-Chloro-6-[N-methyl-N-(3-propynyl)sulfamoyl]quinoline] | 22.9 ± 1.45 µM |  | 0.24 ± 0.01 µM | 140 to 141 °C | 0.3 ± 0.03 µM |  |  | neg |  |  |  |  |  |
| C#CCN(C)S(=O)(=O)c1cnc2ccccc2c1Cl [2c, 4-Chloro-3-[N-methyl-N-(3-propynyl)sulfamoyl]quinoline] |  |  | 0.27 ± 0.02 µM | 120 to 121 °C | 2.24 ± 0.11 µM |  |  |  | 85.4 ± 1.6 µM |  |  |  |  |
| C#CCN(C)S(=O)(=O)c1ccc2nccc(Cl)c2c1 [2d, 4-Chloro-6-[N-methyl-N-(3-propynyl)sulfamoyl]quinoline] | 233.8 ± 1.56 µM |  | 180 ± 2.35 µM | 124 to 125 °C | 292 ± 2.34 µM |  |  |  | 425.2 ± 1.46 µM |  |  |  |  |
| C#CCN(C)S(=O)(=O)c1ccc2c(Cl)ccnc2c1 [2e, 4-Chloro-7-[N-methyl-N-(3-propynyl)sulfamoyl]quinoline] |  |  | 59.3 ± 1.56 µM | 119 to 120 °C | 26.8 ± 0.67 µM |  |  | neg |  |  |  |  |  |
| C#CCN(C)S(=O)(=O)c1cccc2c(Cl)ccnc12 [2f, 4-Chloro-8-[N-methyl-N-(3-propynyl)sulfamoyl]quinoline] | 61.2 ± 1.65 µM |  | 204 ± 3.1 µM | 130 to 133 °C | 295.6 ± 2.56 µM |  |  |  | 153 ± 3 µM |  |  |  |  |
| C#CC[Se]c1nc2ccccc2cc1S(=O)(=O)N(C)CC#C [6a, 2-(3-Propynylseleno)-3-[N-methyl-N-(3-propynyl)sulfamoyl]quinoline] | 237.9 ± 2.11 µM |  | 0.42 ± 0.01 µM | 109 to 110 °C | 146 ± 1.98 µM |  |  | neg |  |  |  |  |  |
| C#CC[Se]c1ccc2cc(S(=O)(=O)N(C)CC#C)ccc2n1 [6b, 2-(3-Propynylseleno)-6-[N-methyl-N-(3-propynyl)sulfamoyl]quinoline] | 22.72 ± 0.12 µM |  |  | 179 to 180 °C | 10.6 ± 0.15 µM |  |  |  | 92.9 ± 2 µM | 1.32 ± 0.12 µM |  |  |  |
| C#CC[Se]c1c(S(=O)(=O)N(C)CC#C)cnc2ccccc12 [6c, 4-(3-Propynylseleno)-3-[N-methyl-N-(3-propynyl)sulfamoyl]quinoline] | 113 µM |  | 17.6 ± 0.87 µM | 122 to 123 °C | 313 ± 7.98 µM |  |  | neg |  |  |  |  |  |
| C#CC[Se]c1ccnc2ccc(S(=O)(=O)N(C)CC#C)cc12 [6d, 4-(3-Propynylseleno)-6-[N-methyl-N-(3-propynyl)sulfamoyl]quinoline] | 259 ± 5.45 µM | neg | 0.68 ± 0.09 µM | 139 to 140 °C |  |  |  |  | 331 ± 4 µM |  |  |  |  |
| C#CC[Se]c1ccnc2cc(S(=O)(=O)N(C)CC#C)ccc12 [6e, 4-(3-Propynylseleno)-7-[N-methyl-N-(3-propynyl)sulfamoyl]quinoline] | 109 ± 2.11 µM |  | 23.5 ± 1.02 µM | 108 to 109 °C | 160 ± 3.23 µM |  |  | neg |  |  |  |  |  |
| C#CC[Se]c1ccnc2c(S(=O)(=O)N(C)CC#C)cccc12 [6f, 4-(3-Propynylseleno)-8-[N-methyl-N-(3-propynyl)sulfamoyl]quinoline] | 0.26 ± 0.01 µM |  | 64.5 ± 1.98 µM | 111 to 115 °C | 55.6 ± 1.78 µM |  |  |  | 317 ± 5.46 µM |  |  |  |  |
| N.N.[Cl][Pt][Cl] [Cisplatin, reference compound] |  |  |  |  |  |  |  |  |  | 17.6 ± 0.31 µM | 30.3 ± 0.34 µM | 77.76 ± 0.76 µM | 7.2 ± 0.6 µM |
| C#CCSc1ccc2ncc(SCC#C)cc2c1 [compound 11, 3,6-Di(3-propynylthio)quinoline] | 7.36 ± 0.45 µM |  | 8.73 ± 0.78 µM | 97 to 98 °C | 127 ± 2.01 µM |  |  |  | 176 ± 3 µM |  |  |  |  |
| C#CCN(C)S(=O)(=O)c1ccc2ncc(S(=O)(=O)N(C)CC#C)cc2c1 [compound 12, 3,6-Di[N-methyl-N-(3-propynyl)sulfamoyl]quinoline] | 3.14 ± 0.34 µM |  | 2.86 ± 0.34 µM | 138 to 139 °C | 2.5 ± 0.09 µM |  |  |  | 375.5 ± 3 µM |  |  |  |  |
| O=S(=O)(Cl)c1cnc2ccc(Cl)cc2c1 [compound 13, 6-chloro-3-chlorosulfonylquinoline] |  |  |  | 109 to 110 °C |  |  |  |  |  |  |  |  |  |
| C#CCN(C)S(=O)(=O)c1cnc2ccc(Cl)cc2c1 [compound 14, 6-Chloro-3-[N-methyl-N-(3-propynyl)sulfamoyl]quinoline] | 118 ± 2.04 µM |  | 26.8 ± 1.45 µM | 146 to 147 °C | 11.7 ± 1.11 µM |  |  |  | 71.8 ± 1.6 µM |  |  |  |  |

Source: article PMC6155812, “Synthesis, Anti-Breast Cancer Activity, and Molecular Docking Study of a New Group of Acetylenic Quinolinesulfonamide Derivatives” (Molecules : A Journal of Synthetic Chemistry and Natural …, 2017)
